The text below walks through data of patent publication US10683293B2, “Optionally fused heterocyclyl-substituted derivatives of pyrimidine useful for the treatment of inflammatory, metabolic, oncologic and autoimmune diseases” (NUEVOLUTION A/S, priority 2014, dated 2020).

A value given as a limit tells only on which side of the number the result lay.

Assay [1] concerns the target T1, ligand binding domain of human RORγ (Homo sapiens, UniProt P51449).
T1 construct: host or cells: HEK293t
T1 sequence (P51449 269-508 limits assumed): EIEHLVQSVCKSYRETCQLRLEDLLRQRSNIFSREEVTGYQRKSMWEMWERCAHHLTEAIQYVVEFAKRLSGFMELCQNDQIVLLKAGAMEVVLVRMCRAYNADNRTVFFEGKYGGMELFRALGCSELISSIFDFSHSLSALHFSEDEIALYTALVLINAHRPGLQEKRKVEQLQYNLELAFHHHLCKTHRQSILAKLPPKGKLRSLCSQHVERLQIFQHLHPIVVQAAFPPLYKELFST
The experiment in a line: RORγ Reporter Assay (Gal4). The assay is classed as cell-based. The following applies: for inhibition at 1 µM: HEK-293T, read-out: Gal4 activity range @ 1 μM (% inhibition); for Gal4 activity range @ 0.1 μM (% inhibition): RORγ Reporter Assay (Gal4), HEK293t reporter cells, compound at 0.1 μM, values are activity range bounds. The procedure, abridged: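 HEK293t cells expressing Gal4 DBD–human RORγ LBD hybrid with Gal4-UAS firefly luciferase reporter; compounds at final 1,000 nM and 100 nM (0.1% DMSO), triplicate, medium with 10% charcoal-stripped FBS, 24 h at 37 °C. Luminescence read; percent reduction of RORγ activity calculated versus vehicle-only wells.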

In assay [2] the target is T2, human RORγt (Ligand Binding Domain) (Homo sapiens, UniProt P51449).
T2 construct: purchased Crelux (Planegg, Germany) batch no PC5032-1
T2 sequence (P51449 269-508 limits assumed): T1 sequence (P51449 269-508 limits assumed)
The experiment in a line: Fluorescence Polarization (FP) Assay. Particulars: 100 nM human RORγt LBD, 25 nM TAMRA probe, values are activity range bounds. The procedure, abridged: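 In vitro fluorescence polarization binding assay on the RORγt ligand-binding pocket. A TAMRA-labelled RORγt ligand probe (MW 910 g/mol) was used, with DMSO as negative control.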

[3] abbreviates: 1 μM test compound, HEK293t RORγ reporter cells, 24 hour.

On to `CC(c1ccc(C(F)(F)F)nc1)N(c1ncnc(NCc2ccc(CC(N)=O)cc2)c1F)C1CC1` (stereo not drawn) [Example A103, 2-[4-[[[6-[cyclopropyl-[1-[6-(trifluoromethyl)-3-pyridyl]ethyl]amino]-5-fluoro-pyrimidin-4-yl]amino]methyl]phenyl]acetamide], for which the inhibition at 1 µM in assay [1] (setting [3]) was more than 80%. In assay [1], the “Gal4 activity range @ 0.1 μM (% inhibition)” value is given as more than 0 % inhibition. This molecule registered an IC50 in assay [2] of less than 1000 nM.
The matching figures for `CC(c1ccc(C(F)(F)F)cn1)N(c1ncnc(NCc2ccc(CC(N)=O)cc2)c1F)C1CC1` (stereo not drawn) [Example A104, 2-[4-[[[6-[cyclopropyl-[1-[5-(trifluoromethyl)-2-pyridyl]ethyl]amino]-5-fluoro-pyrimidin-4-yl]amino]methyl]phenyl]acetamide]: more than 80%, more than 50 % inhibition and less than 1000 nM.
Consider `NC(=O)Cc1ccc(CNc2cc(N(Cc3ccc(C(F)(F)F)cc3)C3CC3)ncn2)cc1` [Example A107, 2-[4-[[[6-[cyclopropyl-[[4-(trifluoromethyl)phenyl]methyl]amino]pyrimidin-4-yl]amino]methyl]phenyl]acetamide], for which the inhibition at 1 µM in assay [1] (setting [3]) was more than 50%. Besides, in assay [1], the “Gal4 activity range @ 0.1 μM (% inhibition)” value is on record as more than 0 % inhibition. Besides, the IC50 in assay [2] is less than 1000 nM.
The matching figures for `CS(=O)(=O)c1ccc(CNc2ncnc(N(Cc3ccc(C(F)(F)F)cn3)C3CC3)c2F)cn1` [Example A108, N4-cyclopropyl-5-fluoro-N6-[(6-methylsulfonyl-3-pyridyl)methyl]-N4-[[5-(trifluoromethyl)-2-pyridyl]methyl]pyrimidine-4,6-diamine]: more than 80%, more than 20 % inhibition and less than 2000 nM.
For `CS(=O)(=O)Nc1ncc(CNc2ncnc(N(Cc3ccc(C(F)(F)F)cc3)C3CC3)c2F)cc1F` [Example A109, N-[5-[[[6-[cyclopropyl-[[4-(trifluoromethyl)phenyl]methyl]amino]-5-fluoro-pyrimidin-4-yl]amino]methyl]-3-fluoro-2-pyridyl]methanesulfonamide] the same measures were more than 80%, more than 0 % inhibition and less than 500 nM.
The matching figures for `CS(=O)(=O)c1ccc(CNc2ncnc(N(Cc3ccc(C(F)(F)F)nc3)C3CC3)c2F)cn1` [Example A110, N4-cyclopropyl-5-fluoro-N6-[(6-methylsulfonyl-3-pyridyl)methyl]-N4-[[6-(trifluoromethyl)-3-pyridyl]methyl]pyrimidine-4,6-diamine]: more than 50%, more than 0 % inhibition and less than 2000 nM.
For the molecule `COc1ccc2cc(CN(C)c3ncnc(NCc4ccc(CC(N)=O)cc4)c3F)ccc2c1` [Example A120, 2-[4-[[[5-fluoro-6-[(6-methoxy-2-naphthyl)methyl-methyl-amino]pyrimidin-4-yl]amino]methyl]phenyl]acetamide], the inhibition at 1 µM in assay [1] (setting [3]) was more than 80%. Moreover, in assay [1], the “Gal4 activity range @ 0.1 μM (% inhibition)” value was more than 20 % inhibition. This molecule also showed an IC50 in assay [2] of less than 500 nM.
As to `CCCn1nc(C)cc1CN(C)c1ncnc(NCc2ccc(CC(N)=O)cc2)c1F` [Example A124, 2-[4-[[[5-fluoro-6-[methyl-[(5-methyl-2-propyl-pyrazol-3-yl)methyl]amino]pyrimidin-4-yl]amino]methyl]phenyl]acetamide], in assay [1] (1 μM test compound, HEK293t RORγ reporter cells, 24 hour, 1 µM), the “Gal4 activity range @ 1 μM (% inhibition)” value is recorded as more than 20%. For the same molecule, in assay [1], the “Gal4 activity range @ 0.1 μM (% inhibition)” value is more than 0 % inhibition. Moreover, the IC50 in assay [2] was less than 500 nM.
In the case of `Cc1nc(C)c(C(C)N(C)c2ncnc(NCc3ccc(CC(N)=O)cc3)c2F)s1` (stereo not drawn) [Example A125, 2-[4-[[[6-[1-(2,4-dimethylthiazol-5-yl)ethyl-methyl-amino]-5-fluoro-pyrimidin-4-yl]amino]methyl]phenyl]acetamide], the inhibition at 1 µM in assay [1] (setting [3]) is more than 50%. Besides, the “Gal4 activity range @ 0.1 μM (% inhibition)” value in assay [1] is more than 0 % inhibition. This molecule also registered an IC50 in assay [2] of less than 500 nM.
